According to PubChem BioAssay AID338 (DTP/NCI, 2004):
Several values for one entry are separate records, joined by “and”; a condition that tells them apart may be missing. Equal entries are not always repeated. Toxic doses and inconclusive results are not listed.

Tested on: BDF1 mice, P388 leukemia (terephthalanilide-resistant), survival T/C
Assay: NCI In Vivo Anticancer Drug Screen. Data for tumor model P388 Leukemia resistant to A Terephthalanilide; NSC 38280 (intraperitoneal) in B6D2F1 (BDF1) mice
Details: endpoint: median survival time, higher = longer survival
Procedure: The antitumor activity of compounds was measured in mice bearing transplantable tumors. Survival or tumor size were measured and the results are expressed as the measurement made in the treated group (T) divided by the measurement made in the vehicle treated control group (C). The tumor model used in this assay is P388 Leukemia resistant to A Terephthalanilide; NSC 38280 (intraperitoneal) in B6D2F1 (BDF1) mice

[1] = dose: 18.0 mg/kg/injection, schedule: Q01DX010 (ip), vehicle: saline
[2] = dose: 100.0 mg/kg/injection, schedule: Q01DX010 (ip), vehicle: saline
[3] = dose: 8.0 mg/kg/injection, schedule: Q01DX010 (ip), vehicle: saline
[4] = dose: 12.0 mg/kg/injection, schedule: Q01DX010 (ip), vehicle: saline
[5] = dose: 12.5 mg/kg/injection, schedule: Q01DX010 (sc), vehicle: steriod suspending solution
[6] = dose: 25.0 mg/kg/injection, schedule: Q01DX010 (sc), vehicle: steriod suspending solution
[7] = dose: 100.0 mg/kg/injection, schedule: Q01DX010 (sc), vehicle: steriod suspending solution
[8] = dose: 25.0 mg/kg/injection, schedule: Q01DX010 (ip), vehicle: saline

## CN=C(NC)c1ccc(NC(=O)c2ccc(C(=O)Nc3ccc(C(=NC)NC)cc3)c(Cl)c2)cc1
[1]
  T/C: 105 % of control
dose: 27.0 mg/kg/injection, schedule: Q01DX010 (ip), vehicle: saline
  T/C: 100 % of control

## COc1cc(-c2ccc(Nc3ccccc3C(=O)O)c(OC)c2)ccc1Nc1ccccc1C(=O)O
dose: 67.0 mg/kg/injection, schedule: Q01DX010 (ip), vehicle: saline
  T/C: 159 % of control
[2]
  T/C: 159 % of control

## CN(C)c1nc(N(C)C)nc(N(C)C)n1
dose: 18.8 mg/kg/injection, schedule: Q01DX010 (ip), vehicle: saline
  T/C: 100 % of control and 116 % of control
dose: 37.5 mg/kg/injection, schedule: Q01DX010 (ip), vehicle: saline
  T/C: 100 % of control and 105 % of control
dose: 75.0 mg/kg/injection, schedule: Q01DX010 (ip), vehicle: saline
  T/C: 100 % of control and 111 % of control
dose: 150.0 mg/kg/injection, schedule: Q01DX010 (ip), vehicle: saline
  T/C: 100 % of control and 105 % of control

## CCCNC(=NC)c1ccc(NC(=O)c2ccc(C(=O)Nc3ccc(C(=NC)NCCC)cc3)cc2)cc1
dose: 5.2 mg/kg/injection, schedule: Q01DX010 (ip), vehicle: saline
  T/C: 100 % of control
[3]
  T/C: 100 % of control
[4]
  T/C: 111 % of control
[1]
  T/C: 111 % of control

## C[C@]12C=CC(=O)C=C1CC[C@@H]1[C@@H]2[C@@H](O)C[C@@]2(C)[C@H]1CC[C@]2(O)C(=O)CO
[5]
  T/C: 112 % of control
[6]
  T/C: 118 % of control
dose: 50.0 mg/kg/injection, schedule: Q01DX010 (sc), vehicle: steriod suspending solution
  T/C: 106 % of control
[7]
  T/C: 112 % of control

## CN(C)CC(=O)c1ccc(O)c(O)c1
dose: 200.0 mg/kg/injection, schedule: Q01DX010 (ip), vehicle: saline
  T/C: 113 % of control
dose: 300.0 mg/kg/injection, schedule: Q01DX010 (ip), vehicle: saline
  T/C: 113 % of control
dose: 450.0 mg/kg/injection, schedule: Q01DX010 (ip), vehicle: saline
  T/C: 113 % of control

## CN(C)c1ccc(/C=C\c2ccnc3ccccc23)cc1
dose: 1.5 mg/kg/injection, schedule: Q01DX010 (ip), vehicle: saline
  T/C: 91 % of control
[4]
  T/C: 91 % of control

## O=C(Nc1ccc(C2=NCCN2)cc1)c1cc(C(=O)Nc2ccc(C3=NCCN3)cc2)cc([N+](=O)[O-])c1
dose: 167.0 mg/kg/injection, schedule: Q01DX010 (ip), vehicle: saline
  T/C: 94 % of control
dose: 250.0 mg/kg/injection, schedule: Q01DX010 (ip), vehicle: saline
  T/C: 100 % of control
dose: 375.0 mg/kg/injection, schedule: Q01DX010 (ip), vehicle: saline
  T/C: 94 % of control
dose: 512.0 mg/kg/injection, schedule: Q01DX010 (ip), vehicle: saline
  T/C: 94 % of control

## CC/C(=C(/CC)c1ccc(O)cc1)c1ccc(O)cc1
[5]
  T/C: 90 % of control
[6]
  T/C: 90 % of control
[7]
  T/C: 90 % of control

## CCN(CC)CCNc1ccc(C)c2sc3ccccc3c(=O)c12
[8]
  T/C: 105 % of control and 122 % of control
[2]
  T/C: 100 % of control

## CCCSc1ncnc2nc[nH]c12
dose: 31.3 mg/kg/injection, schedule: Q01DX010 (ip), vehicle: saline
  T/C: 118 % of control
dose: 62.5 mg/kg/injection, schedule: Q01DX010 (ip), vehicle: saline
  T/C: 112 % of control

## Nc1nc2n[nH]nc2c(=O)[nH]1
dose: 25.0 mg/kg/injection, schedule: Q01DX010 (ip), vehicle: alkali diluted with saline
  T/C: 162 % of control
dose: 50.0 mg/kg/injection, schedule: Q01DX010 (ip), vehicle: alkali diluted with saline
  T/C: 162 % of control
dose: 100.0 mg/kg/injection, schedule: Q01DX010 (ip), vehicle: alkali diluted with saline
  T/C: 175 % of control
dose: 200.0 mg/kg/injection, schedule: Q01DX010 (ip), vehicle: alkali diluted with saline
  T/C: 175 % of control

## [I][Hg][CH2]C1COC([CH2][Hg][I])CO1 (stereo not drawn)
dose: 0.78 mg/kg/injection, schedule: Q01DX010 (ip), vehicle: saline
  T/C: 91 % of control
dose: 1.56 mg/kg/injection, schedule: Q01DX010 (ip), vehicle: saline
  T/C: 95 % of control
dose: 3.13 mg/kg/injection, schedule: Q01DX010 (ip), vehicle: saline
  T/C: 91 % of control

## Cc1cc(N(CCCl)CCCl)ccc1N=Nc1ccccc1C(=O)O
dose: 5.0 mg/kg/injection, schedule: Q01DX010 (ip), vehicle: saline
  T/C: 116 % of control
dose: 40.0 mg/kg/injection, schedule: Q01DX010 (ip), vehicle: saline
  T/C: 100 % of control

## Nc1nc(=S)c2ncn(C3OC(CO)C(O)C3O)c2[nH]1 (stereo not drawn)
dose: 2.0 mg/kg/injection, schedule: Q01DX010 (ip), vehicle: saline
  T/C: 109 % of control
dose: 4.0 mg/kg/injection, schedule: Q01DX010 (ip), vehicle: saline
  T/C: 104 % of control
[3]
  T/C: 105 % of control
dose: 16.0 mg/kg/injection, schedule: Q01DX010 (ip), vehicle: saline
  T/C: 105 % of control

## O=NN(CCCl)C(=O)NCCCl
dose: 6.25 mg/kg/injection, schedule: Q01DX010 (ip), vehicle: saline
  T/C: 225 % of control and 245 % of control
dose: 12.5 mg/kg/injection, schedule: Q01DX010 (ip), vehicle: saline
  T/C: 215 % of control and 300 % of control
[8]
  T/C: 110 % of control
